# Source: PMC5218480 (PLoS ONE, 2017)
# Test system: MV-4-11 cells
# Test: Gene expression microarray analysis (Affymetrix PrimeView) and GSEA
# Assay type: cell-based, human
# Set-up: RFU PODN (11730768_x_at) / Fold change /veh PODN (11730768_x_at) / RFU LINC00158 (11744669_a_at) / Fold change /veh LINC00158 (11744669_a_at) / RFU DUSP10 (11751237_a_at) / Fold change /veh DUSP10 (11751237_a_at) / RFU ID3 (11757404_x_at) / Fold change /veh ID3 (11757404_x_at) / RFU PLEKHG5 (11737974_s_at) / Fold change /veh PLEKHG5 (11737974_s_at) / RFU LRRC4B (11730491_at) / Fold change /veh LRRC4B (11730491_at) / RFU GIMAP4 (11747438_a_at) / Fold change /veh GIMAP4 (11747438_a_at) / RFU KRT8 (11758183_x_at) / Fold change /veh KRT8 (11758183_x_at) / RFU CNN1 (11734310_a_at) / Fold change /veh CNN1 (11734310_a_at) / RFU VPS37D (11726825_at) / Fold change /veh VPS37D (11726825_at) / RFU C10orf10 (11716522_x_at) / Fold change /veh C10orf10 (11716522_x_at) / RFU KIR2DL2 /// KIR2DL4 /// KIR2DL5A /// KIR2DL5B /// KIR2DS1 /// KIR2DS2 /// KIR2DS3 /// KIR2DS4 /// KIR3DL3 /// KIR3DL3 /// KIR3DS1 (11738374_at) / Fold change /veh KIR2DL2 /// KIR2DL4 /// KIR2DL5A /// KIR2DL5B /// KIR2DS1 /// KIR2DS2 /// KIR2DS3 /// KIR2DS4 /// KIR3DL3 /// KIR3DL3 /// KIR3DS1 (11738374_at) / RFU C1QL1 (11718748_at) / Fold change /veh C1QL1 (11718748_at) / RFU TMPRSS4 (11747572_a_at) / Fold change /veh TMPRSS4 (11747572_a_at) / RFU HAMP (11756126_x_at) / Fold change /veh HAMP (11756126_x_at) / RFU RNFT2 (11725882_a_at) / Fold change /veh RNFT2 (11725882_a_at) / RFU NR4A2 (11747474_a_at) / Fold change /veh NR4A2 (11747474_a_at) / RFU ABCC12 (11746883_a_at) / Fold change /veh ABCC12 (11746883_a_at) / RFU TMEM136 (11760407_x_at) / Fold change /veh TMEM136 (11760407_x_at) / RFU CLDN22 /// WWC2 (11732394_at) / Fold change /veh CLDN22 /// WWC2 (11732394_at) / RFU HLA-DPB1 (11760878_x_at) / Fold change /veh HLA-DPB1 (11760878_x_at) / RFU SPINT1 (11716480_a_at) / Fold change /veh SPINT1 (11716480_a_at) / RFU GAP43 (11754022_s_at) / Fold change /veh GAP43 (11754022_s_at) / RFU A4GNT (11735810_at) / Fold change /veh A4GNT (11735810_at) / RFU PRB3 (11715151_x_at) / Fold change /veh PRB3 (11715151_x_at) / RFU TUBB4B (11761932_at) / Fold change /veh TUBB4B (11761932_at) / RFU CAPN14 (11732068_a_at) / Fold change /veh CAPN14 (11732068_a_at) / RFU TMCC2 (11721928_a_at) / Fold change /veh TMCC2 (11721928_a_at) / RFU IRGQ (11745062_a_at) / Fold change /veh IRGQ (11745062_a_at) / RFU FAM174B (11720279_a_at) / Fold change /veh FAM174B (11720279_a_at) / RFU TMPRSS4 (11748680_a_at) / Fold change /veh TMPRSS4 (11748680_a_at) / RFU FAM212B (11763350_a_at) / Fold change /veh FAM212B (11763350_a_at) / RFU PLEKHG5 (11743358_a_at) / Fold change /veh PLEKHG5 (11743358_a_at) / RFU ZSCAN30 (11745921_a_at) / Fold change /veh ZSCAN30 (11745921_a_at) / RFU CMKLR1 (11741424_a_at) / Fold change /veh CMKLR1 (11741424_a_at) / RFU LOC101060620 /// MAPK8IP1 (11723275_at) / Fold change /veh LOC101060620 /// MAPK8IP1 (11723275_at) / RFU SPTSSB (11747773_x_at) / Fold change /veh SPTSSB (11747773_x_at) / RFU PRSS12 (11739890_at) / Fold change /veh PRSS12 (11739890_at) / RFU BIN1 (11741810_x_at) / Fold change /veh BIN1 (11741810_x_at) / RFU WNT11 (11732464_a_at) / Fold change /veh WNT11 (11732464_a_at) / RFU C10orf10 (11716521_a_at) / Fold change /veh C10orf10 (11716521_a_at) / RFU C5orf56 (11738089_at) / Fold change /veh C5orf56 (11738089_at) / RFU CYB561 (11721691_x_at) / Fold change /veh CYB561 (11721691_x_at) / RFU ANKRD19P (11752326_a_at) / Fold change /veh ANKRD19P (11752326_a_at) / RFU OR2T12 /// OR2T33 /// OR2T8 (11738714_s_at) / Fold change /veh OR2T12 /// OR2T33 /// OR2T8 (11738714_s_at) / RFU VCAN (11748164_a_at) / Fold change /veh VCAN (11748164_a_at) / RFU JSRP1 (11732532_at) / Fold change /veh JSRP1 (11732532_at) / RFU KRTAP10-11 (11738290_x_at) / Fold change /veh KRTAP10-11 (11738290_x_at) / RFU MYO3A (11730013_a_at) / Fold change /veh MYO3A (11730013_a_at) / RFU EBF3 (11725865_a_at) / Fold change /veh EBF3 (11725865_a_at) / RFU CAMK2N1 (11719241_x_at) / Fold change /veh CAMK2N1 (11719241_x_at) / RFU C5orf56 (11738088_a_at) / Fold change /veh C5orf56 (11738088_a_at) / RFU OLFML3 (11715873_a_at) / Fold change /veh OLFML3 (11715873_a_at) / RFU LOC100653217 /// NTM (11731650_a_at) / Fold change /veh LOC100653217 /// NTM (11731650_a_at) / RFU MAPK11 (11762145_a_at) / Fold change /veh MAPK11 (11762145_a_at) / RFU FIZ1 (11724087_x_at) / Fold change /veh FIZ1 (11724087_x_at) / RFU OASL (11726364_x_at) / Fold change /veh OASL (11726364_x_at) / RFU SOX15 (11748057_x_at) / Fold change /veh SOX15 (11748057_x_at) / RFU CD79A (11719716_a_at) / Fold change /veh CD79A (11719716_a_at) / RFU HIST1H1D (11736915_at) / Fold change /veh HIST1H1D (11736915_at) / RFU CASKIN2 (11723855_a_at) / Fold change /veh CASKIN2 (11723855_a_at) / RFU LOC730098 (11760151_x_at) / Fold change /veh LOC730098 (11760151_x_at) / RFU OR4N2 (11742367_at) / Fold change /veh OR4N2 (11742367_at) / RFU PRRT2 (11749266_a_at) / Fold change /veh PRRT2 (11749266_a_at) / RFU SNX32 (11753110_a_at) / Fold change /veh SNX32 (11753110_a_at) / RFU CDHR5 (11726645_a_at) / Fold change /veh CDHR5 (11726645_a_at) / RFU RCAN1 (11760418_a_at) / Fold change /veh RCAN1 (11760418_a_at) / RFU FAM167A (11723789_a_at) / Fold change /veh FAM167A (11723789_a_at) / RFU FAM26E (11764081_at) / Fold change /veh FAM26E (11764081_at) / RFU ISYNA1 (11749810_s_at) / Fold change /veh ISYNA1 (11749810_s_at) / RFU ACY1 (11761880_at) / Fold change /veh ACY1 (11761880_at) / RFU 11764098_at / Fold change /veh 11764098_at / RFU SAMD14 (11745864_x_at) / Fold change /veh SAMD14 (11745864_x_at) / RFU NPB (11741838_a_at) / Fold change /veh NPB (11741838_a_at) / RFU TMPRSS6 (11731388_a_at) / Fold change /veh TMPRSS6 (11731388_a_at) / RFU KRTAP10-2 (11738614_at) / Fold change /veh KRTAP10-2 (11738614_at) / RFU ARHGAP8 /// PRR5-ARHGAP8 (11727945_x_at) / Fold change /veh ARHGAP8 /// PRR5-ARHGAP8 (11727945_x_at) / RFU KRTAP5-7 /// NADSYN1 (11734609_at) / Fold change /veh KRTAP5-7 /// NADSYN1 (11734609_at) / RFU RASL12 (11751679_a_at) / Fold change /veh RASL12 (11751679_a_at) / RFU CDKN2B (11736163_a_at) / Fold change /veh CDKN2B (11736163_a_at) / RFU PRF1 (11729649_at) / Fold change /veh PRF1 (11729649_at) / RFU, ZNF638 /// ZNF638-IT1 / Fold change vs veh, ZNF638 /// ZNF638-IT1 / RFU, PANK3 / Fold change vs veh, PANK3 / RFU, SH3YL1 / Fold change vs veh, SH3YL1 / RFU, ZEB2 / Fold change vs veh, ZEB2 / RFU, NRIP1 / Fold change vs veh, NRIP1 / RFU, PTTG1IP / Fold change vs veh, PTTG1IP / RFU, CAPN2 / Fold change vs veh, CAPN2 / RFU, MED14 / Fold change vs veh, MED14 / RFU, SNORA58 / Fold change vs veh, SNORA58 / RFU, C1orf63 / Fold change vs veh, C1orf63 / RFU, LRRFIP1 / Fold change vs veh, LRRFIP1 / RFU, NDUFAF7 / Fold change vs veh, NDUFAF7 / RFU, SLC12A2 / Fold change vs veh, SLC12A2 / RFU, IBTK / Fold change vs veh, IBTK / RFU, ESF1 / Fold change vs veh, ESF1 / Fold change vs veh, TMEM50B / RFU, TAOK1 / Fold change vs veh, TAOK1 / RFU, ACBD3 / Fold change vs veh, ACBD3 / RFU, TMA16 / Fold change vs veh, TMA16 / RFU, RWDD3 / Fold change vs veh, RWDD3 / RFU, BCAT1 / Fold change vs veh, BCAT1 / RFU, EDEM3 / Fold change vs veh, EDEM3 / RFU, TMEM33 / Fold change vs veh, TMEM33 / RFU, WDR75 / Fold change vs veh, WDR75 / RFU, AHCTF1 / Fold change vs veh, AHCTF1 / RFU, TFRC / Fold change vs veh, TFRC / RFU, ZDHHC17 / Fold change vs veh, ZDHHC17 / RFU, NOM1 / Fold change vs veh, NOM1 / RFU, ARL8B / Fold change vs veh, ARL8B / RFU, ZBTB11 / Fold change vs veh, ZBTB11 / RFU, TAMM41 / Fold change vs veh, TAMM41 / RFU, KIAA1704 /// LOC100996395 / Fold change vs veh, KIAA1704 /// LOC100996395 / RFU, ING1 / Fold change vs veh, ING1 / RFU, TRMT61B / Fold change vs veh, TRMT61B / RFU, FUBP3 / Fold change vs veh, FUBP3 / RFU, TP53 / Fold change vs veh, TP53 / RFU, TNKS2 / Fold change vs veh, TNKS2 / RFU, ZFP14 / Fold change vs veh, ZFP14 / RFU, ACTR2 / Fold change vs veh, ACTR2 / RFU, PPP3R1 / Fold change vs veh, PPP3R1 / RFU, PIK3R1 / Fold change vs veh, PIK3R1 / RFU, HNRNPA1 / Fold change vs veh, HNRNPA1 / RFU, RNF170 / Fold change vs veh, RNF170 / RFU, ZNF28 / Fold change vs veh, ZNF28 / RFU, RNGTT / Fold change vs veh, RNGTT / RFU, OGT / Fold change vs veh, OGT / RFU, BRD1 / Fold change vs veh, BRD1 / RFU, MARS / Fold change vs veh, MARS / RFU, ZNF655 / Fold change vs veh, ZNF655 / RFU, FAHD1 / Fold change vs veh, FAHD1 / RFU, BDP1 / Fold change vs veh, BDP1 / RFU, LRRCC1 / Fold change vs veh, LRRCC1 / RFU, ARID1A / Fold change vs veh, ARID1A / RFU, ZNF146 / Fold change vs veh, ZNF146 / RFU, ZNF330 / Fold change vs veh, ZNF330 / RFU, GPN3 / Fold change vs veh, GPN3 / RFU, C9orf123 / Fold change vs veh, C9orf123 / RFU, N4BP2L2 / Fold change vs veh, N4BP2L2 / RFU, ARFIP1 / Fold change vs veh, ARFIP1 / RFU, FAM179B / Fold change vs veh, FAM179B / RFU, BCL10 / Fold change vs veh, BCL10 / RFU, UHRF1BP1L / Fold change vs veh, UHRF1BP1L / RFU, BET1 / Fold change vs veh, BET1 / RFU, CNOT2 / Fold change vs veh, CNOT2 / RFU, ZNF268 / Fold change vs veh, ZNF268 / Fold change vs veh, ZNF507 / RFU, DGCR2 / Fold change vs veh, DGCR2 / RFU, WDSUB1 / Fold change vs veh, WDSUB1 / Fold change vs veh, HSP90B1 /// MIR3652 / RFU, ADSS / Fold change vs veh, ADSS / RFU, GK / Fold change vs veh, GK / RFU, ZNF148 / Fold change vs veh, ZNF148 / RFU, TAF9 / Fold change vs veh, TAF9 / RFU, SLC1A5 / Fold change vs veh, SLC1A5 / RFU, SLMO2 / Fold change vs veh, SLMO2 / RFU, ABCC4 / Fold change vs veh, ABCC4 / RFU, LOC101060439 /// RAP1B / Fold change vs veh, LOC101060439 /// RAP1B / RFU, RFX7 / Fold change vs veh, RFX7 / RFU, GTPBP10 / Fold change vs veh, GTPBP10 / RFU, CNEP1R1 / Fold change vs veh, CNEP1R1 / RFU, BIVM-ERCC5 /// ERCC5 / Fold change vs veh, BIVM-ERCC5 /// ERCC5 / RFU, ILF3 / Fold change vs veh, ILF3 / RFU 11762660_at / Fold change /veh 11762660_at / RFU VCAN (11757783_s_at) / Fold change /veh VCAN (11757783_s_at) / RFU DDX43 (11728927_at) / Fold change /veh DDX43 (11728927_at) / RFU KRT8 (11758188_x_at) / Fold change /veh KRT8 (11758188_x_at) / RFU NKD1 (11759106_at) / Fold change /veh NKD1 (11759106_at) / RFU SRD5A1 (11742802_a_at) / Fold change /veh SRD5A1 (11742802_a_at) / RFU TPSAB1 /// TPSB2 (11721975_s_at) / Fold change /veh TPSAB1 /// TPSB2 (11721975_s_at) / RFU GSTM3 (11746129_a_at) / Fold change /veh GSTM3 (11746129_a_at) / RFU IL23R (11737362_x_at) / Fold change /veh IL23R (11737362_x_at) / RFU TMEM51 (11727254_a_at) / Fold change /veh TMEM51 (11727254_a_at) / RFU PIWIL2 (11732686_x_at) / Fold change /veh PIWIL2 (11732686_x_at) / RFU ORM1 (11744905_x_at) / Fold change /veh ORM1 (11744905_x_at) / RFU CCDC152 (11743942_at) / Fold change /veh CCDC152 (11743942_at) / RFU ECM1 (11717891_a_at) / Fold change /veh ECM1 (11717891_a_at) / RFU IL23R (11748794_a_at) / Fold change /veh IL23R (11748794_a_at) / RFU TNFAIP8L3 (11732012_x_at) / Fold change /veh TNFAIP8L3 (11732012_x_at) / RFU MBOAT4 (11741988_at) / Fold change /veh MBOAT4 (11741988_at) / RFU 11764193_at / Fold change /veh 11764193_at / RFU TMEM53 (11763286_at) / Fold change /veh TMEM53 (11763286_at) / RFU MAGEB2 (11727129_at) / Fold change /veh MAGEB2 (11727129_at) / RFU TMEM200A (11744735_a_at) / Fold change /veh TMEM200A (11744735_a_at) / RFU CCDC152 (11751479_a_at) / Fold change /veh CCDC152 (11751479_a_at) / RFU FAM211A (11726209_a_at) / Fold change /veh FAM211A (11726209_a_at) / RFU RGS16 (11746705_a_at) / Fold change /veh RGS16 (11746705_a_at) / RFU VCAN (11755009_s_at) / Fold change /veh VCAN (11755009_s_at) / RFU RHOB (11743442_s_at) / Fold change /veh RHOB (11743442_s_at) / RFU RGS16 (11720943_a_at) / Fold change /veh RGS16 (11720943_a_at) / RFU RGS16 (11720944_at) / Fold change /veh RGS16 (11720944_at) / RFU, VPS4B / Fold change vs veh, VPS4B / RFU, CREB1 / Fold change vs veh, CREB1 / RFU, DNAJC13 / Fold change vs veh, DNAJC13 / RFU, GNAQ / Fold change vs veh, GNAQ / RFU, CDK5R1 / Fold change vs veh, CDK5R1 / RFU, ZRANB3 / Fold change vs veh, ZRANB3 / RFU, CUL4A / Fold change vs veh, CUL4A / RFU, CCNY / Fold change vs veh, CCNY / RFU, UFL1 / Fold change vs veh, UFL1 / RFU, COG3 / Fold change vs veh, COG3 / RFU, DIAPH2 / Fold change vs veh, DIAPH2 / RFU, SKA2 / Fold change vs veh, SKA2 / RFU, AFF3 / Fold change vs veh, AFF3 / RFU, LMF1 / Fold change vs veh, LMF1 / RFU, IPO11 / Fold change vs veh, IPO11 / RFU, DFFB / Fold change vs veh, DFFB / RFU, FOXP1 / Fold change vs veh, FOXP1 / RFU, CARD8 / Fold change vs veh, CARD8 / RFU, STRN3 / Fold change vs veh, STRN3 / RFU, ADK / Fold change vs veh, ADK / RFU, RASSF2 / Fold change vs veh, RASSF2 / RFU, WIPF1 / Fold change vs veh, WIPF1 / RFU, LARP1B / Fold change vs veh, LARP1B / RFU, RASA1 / Fold change vs veh, RASA1 / RFU, RB1 / Fold change vs veh, RB1 / RFU, PPFIA1 / Fold change vs veh, PPFIA1 / RFU, MAT2A / Fold change vs veh, MAT2A / RFU, CCT5 / Fold change vs veh, CCT5 / RFU, WDR92 / Fold change vs veh, WDR92 / RFU, CUX1 / Fold change vs veh, CUX1 / RFU, TTC7A / Fold change vs veh, TTC7A / RFU, TMEM135 / Fold change vs veh, TMEM135 / RFU, DEPTOR / Fold change vs veh, DEPTOR / RFU, CPM / Fold change vs veh, CPM / RFU, DNAJB6 / Fold change vs veh, DNAJB6 / RFU, CACNA2D3 / Fold change vs veh, CACNA2D3 / RFU, DTX4 / Fold change vs veh, DTX4 / RFU, TFCP2 / Fold change vs veh, TFCP2 / RFU, GMCL1 /// GMCL1P1 / Fold change vs veh, GMCL1 /// GMCL1P1 / RFU, AEBP2 / Fold change vs veh, AEBP2 / RFU, SNHG1 /// SNORD22 /// SNORD25 /// SNORD26 /// SNORD27 /// SNORD28 /// SNORD29 /// SNORD31 / Fold change vs veh, SNHG1 /// SNORD22 /// SNORD25 /// SNORD26 /// SNORD27 /// SNORD28 /// SNORD29 /// SNORD31 / Fold change (Aza/veh), C12orf56 (ProbeSet 11735607_a_at) / Fold change (ACY-1035/veh), C12orf56 (ProbeSet 11735607_a_at) / Fold change (Aza/veh), FGFR1OP (ProbeSet 11751329_s_at) / Fold change (ACY-1035/veh), FGFR1OP (ProbeSet 11751329_s_at) / Fold change (Aza/veh), VPS36 (ProbeSet 11739960_a_at) / Fold change (ACY-1035/veh), VPS36 (ProbeSet 11739960_a_at) / RFU SYPL1 (11715823_x_at) / Fold change /veh SYPL1 (11715823_x_at) / RFU IGFBP7 (11715501_s_at) / Fold change /veh IGFBP7 (11715501_s_at) / RFU REEP3 (11722064_at) / Fold change /veh REEP3 (11722064_at) / RFU IGLL1 (11728026_x_at) / Fold change /veh IGLL1 (11728026_x_at): dose or concentration left out as unconfirmed
# Conditions: MV-4-11 cells, 48 hours
smiles,measurement,value
Nc1ccc(-c2cccs2)cc1NC(=O)c1ccc2c(c1)cc(C1CC1)n2CCN1CCOCC1 [ACY-1035],Fold change /veh FAM212B (11763350_a_at),1.09
